Experimental data reported in patent publication US10858335B2 (Rigel Pharmaceuticals, Inc., priority 2014, dated 2020).

test system: GDF8 signaling (p-SMAD-3 (Ser423/425)); experiment: AlphaScreen SureFire SMAD3 (p-Ser423/425) assay, GDF8-stimulated cells (GDF pSMAD); format: cell-based; settings: Mus musculus, MPC-11, GDF8-stimulated pSMAD3, MPC11; tested as the salt form given; read-out: GDF pSMAD (MPC11) (μM), inhibition of GDF8 signaling

In order of falling IC50:
1. COc1ccc(C)c(-c2ncccc2-c2ccc3ncnc(N)c3c2)c1 [compound 1015, 6-(2-(5-methoxy-2-methylphenyl)pyridin-3-yl)quinazolin-4-amine]  6.95 µM
2. Nc1ncnc2ccc(-c3cccnc3-c3cc(O)ccc3Cl)cc12 [compound 1016, 3-(3-(4-aminoquinazolin-6-yl)pyridin-2-yl)-4-chlorophenol]  2.77 µM

same assay, conditions: Mus musculus, MPC-11, MPC11; GDF8-stimulated; p-SMAD3 AlphaScreen; read-out: GDF pSMAD (MPC11) (inhibition of GDF8 signaling)

In order of rising IC50:
1. Cc1cc(-c2ncccc2-c2ccc3ncsc3n2)ccc1F [compound 303, 5-(2-(4-Fluoro-3-methylphenyl)pyridin-3-yl)thiazolo[5,4-b]pyridine]  0.0947 µM
2. Cn1cnc2ccc(-c3cccnc3-c3cc(Cl)ccc3F)cc21 [compound 785, 6-(2-(5-Chloro-2-fluorophenyl)pyridin-3-yl)-1-methyl-1H-benzo[d]imidazole]  0.11 µM
3. c1cc(-c2ncccc2-c2ccc3ncccc3n2)cc(C2CC2)c1 [compound 537, 2-(2-(3-Cyclopropylphenyl)pyridin-3-yl)-1,5-naphthyridine]  0.111 µM
4. COc1ncnc2ccc(-c3cccnc3-c3ccc(F)c(C)c3)cc12 [compound 375, 6-(2-(4-Fluoro-3-methylphenyl)pyridin-3-yl)-4-methoxyquinazoline]  0.152 µM
5. Fc1ccc(-c2ncccc2-c2ccc3ncsc3n2)cc1Cl [compound 305, 5-(2-(3-Chloro-4-fluorophenyl)pyridin-3-yl)thiazolo[5,4-b]pyridine]  0.175 µM
6. Cc1cccc(-c2ncccc2-c2ccc3cn[nH]c3c2)c1 [Compound 102, 6-(2-m-Tolylpyridin-3-yl)-1H-indazole]  0.341 µM
7. Cc1cc(-c2ncccc2-c2ccn3ncc(C(=O)NCCN(C)C)c3c2)ccc1F [compound 673, N-(2-(Dimethylamino)ethyl)-5-(2-(4-fluoro-3-methylphenyl)pyridin-3-yl)pyrazolo[1,5-a]pyridine-3-carboxamide]  0.375 µM
8. Cn1cnc2ccc(-c3cccnc3-c3cccc(O)c3)cc2c1=O [compound 379, 6-(2-(3-Hydroxyphenyl)pyridin-3-yl)-3-methylquinazolin-4(3H)-one]  0.395 µM
9. Fc1cc(F)c(-c2ncccc2-c2ccc3ncnn3n2)cc1Cl [compound 956, 6-(2-(5-Chloro-2,4-difluorophenyl)pyridin-3-yl)-[l 1,2,4]triazolo[1,5-b]pyridazine]  0.421 µM
10. Clc1cccc(-c2ncccc2-c2ccc3ncnn3n2)c1 [compound 954, 6-(2-(3-Chlorophenyl)pyridin-3-yl)-[1,2,4]triazolo[1,5-b]pyridazine]  0.438 µM
11. Cc1cc(-c2nc(N)ccc2-c2ccc3ncsc3c2)ccc1F [Compound 27, 5-(Benzo[d]thiazol-6-yl)-6-(4-fluoro-3-methylphenyl)pyridin-2-amine]  0.453 µM
12. Cc1cc(-c2ncccc2-c2ccc3ncnn3c2)ccc1F [Compound 191, 6-(2-(4-Fluoro-3-methylphenyl)pyridin-3-yl)-[1,2,4]triazolo[1,5-a]pyridine]  0.663 µM
13. Cc1cc(-c2ncc(NCc3ccc(N4CCOCC4)cc3)cc2-c2ccc3ncsc3c2)ccc1F [compound 353, 5-(Benzo[d]thiazol-6-yl)-6-(4-fluoro-3-methylphenyl)-N-(4-morpholinobenzyl)pyridin-3-amine]  0.689 µM
14. Nc1ncnc2ccc(-c3cccnc3-c3cccc(OCC4CC4)c3)cc12 [compound 483, 6-(2-(3-(Cyclopropylmethoxy)phenyl)pyridin-3-yl)quinazolin-4-amine]  0.82 µM
15. Fc1ccc(OC(F)(F)F)cc1-c1ncccc1-c1ccn2ncnc2c1 [compound 884, 7-(2-(2-Fluoro-5-(trifluoromethoxy)phenyl)pyridin-3-yl)-[1,2,4]triazolo[1,5-a]pyridine]  0.997 µM
16. Cc1cc(-c2ncccc2-c2ccc3c(cnn3C)c2)ccc1F [Compound 145, 5-(2-(4-Fluoro-3-methylphenyl)pyridin-3-yl)-1-methyl-1H-indazole]  1.13 µM
17. CC(C)Oc1cccc(-c2ncccc2-c2ccc3ncnc(N)c3c2)c1 [compound 480, 6-(2-(3-isopropoxyphenyl)pyridin-3-yl)quinazolin-4-amine]  1.21 µM
18. Cc1cc(-c2ncc(-c3ccc(C(N)=O)cc3)cc2-c2ccc3ncsc3c2)ccc1F [compound 318, 4-(5-(Benzo[d]thiazol-6-yl)-6-(4-fluoro-3-methylphenyl)pyridin-3-yl)benzamide]  1.3 µM
19. Fc1cccc(-c2ncccc2-c2ccc3ncsc3c2)c1 [compound 658, 6-(2-(3-Fluorophenyl)pyridin-3-yl)benzo[d]thiazole]  1.5 µM
20. Cc1cc(-c2nc3c(cc2-c2ccc4ncsc4c2)NC(=O)CO3)ccc1F [compound 292, 7-(Benzo[d]thiazol-6-yl)-6-(4-fluoro-3-methylphenyl)-1H-pyrido[2,3-b] [1,4]oxazin-2(3H)-one]  1.74 µM
21. Cc1cc(-c2ncccc2-c2ccc3ncc(C(=O)N[C@H]4CCCC[C@@H]4N)n3c2)ccc1F [compound 680, N-((1S,2S)-2-Aminocyclohexyl)-6-(2-(4-fluoro-3-methylphenyl)pyridin-3-yl)imidazo[1,2-a]pyridine-3-carboxamide]  2.13 µM
22. Cc1c(-c2cccnc2-c2cc(Cl)ccc2F)ccc2ncnn12 [compound 812, 6-(2-(5-Chloro-2-fluorophenyl)pyridin-3-yl)-5-methyl-[1,2,4]triazolo[1,5-a]pyridine]  2.14 µM
23. CN(C)c1cnc2ccc(-c3cccnc3-c3cccc(C4CC4)c3)cn12 [compound 553, 6-(2-(3-Cyclopropylphenyl)pyridin-3-yl)-N,N-dimethylimidazo[1,2-a]pyridin-3-amine]  3.24 µM
24. Cc1cc(-c2ncccc2-c2ccc3ncnc(NCCc4cccnc4)c3c2)ccc1F [compound 414, 6-(2-(4-Fluoro-3-methylphenyl)pyridin-3-yl)-N-(2-(pyridin-3-yl)ethyl)quinazolin-4-amine]  3.33 µM
25. Cc1cc(-c2ncc(Cl)cc2-c2ccc3[nH]ncc3c2)ccc1F [Compound 9, 5-(5-Chloro-2-(4-fluoro-3-methylphenyl)pyridin-3-yl)-1H-indazole]  5.13 µM
26. Cc1cccc(-c2ncccc2-c2ccc3nc(N)ncc3c2)c1 [compound 384, 6-(2-(m-Tolyl)pyridin-3-yl)quinazolin-2-amine]  7.79 µM
27. Cc1cc(-c2ncc(CN(C)C)cc2-c2ccc3nccnc3c2)ccc1F [compound 226, 1-(6-(4-Fluoro-3-methylphenyl)-5-(quinoxalin-6-yl)pyridin-3-yl)-N,N-dimethylmethanamine]  10 µM
28. CCn1ncc2cc(-c3cccnc3-c3ccc(F)c(C)c3)ccc21 [Compound 184, 1-Ethyl-5-(2-(4-fluoro-3-methylphenyl)pyridin-3-yl)-1H-indazole]  12.9 µM
29. CC(=O)Nc1cccc(-c2ncccc2-c2ccc3ncn(C)c(=O)c3c2)c1 [compound 380, N-(3-(3-(3-Methyl-4-oxo-3,4-dihydroquinazolin-6-yl)pyridin-2-yl)phenyl)acetamide]  18.5 µM
30. Cc1cc(-c2ncccc2-c2ccc3c(cnn3C(=O)NCCCN)c2)ccc1F [compound 640, N-(3-Aminopropyl)-5-(2-(4-fluoro-3-methylphenyl)pyridin-3-yl)-1H-indazole-1-carboxamide]  19.2 µM
31. Fc1ccc(-c2ncccc2-c2cnc3cn[nH]c3c2)cc1F [Compound 137, 6-(2-(3,4-Difluorophenyl)pyridin-3-yl)-1H-pyrazolo[4,3-b]pyridine]  22.8 µM
